# Numbers after ± are expanded uncertainties.
# Conditions: Liquid; for mass density: 298.15 K, 101.33 kPa
structure (smiles),measurement,setting,value
CCO [ethanol],mass density,,785.23 ± 0.31 kg/m3
same,vapor or sublimation pressure,"329.7 K, Ebulliometric method (Recirculating still)",40 ± 0.42 kPa
same,vapor or sublimation pressure,"336.11 K, Ebulliometric method (Recirculating still)",53.33 ± 0.46 kPa
same,vapor or sublimation pressure,"341.28 K, Ebulliometric method (Recirculating still)",66.66 ± 0.56 kPa
same,vapor or sublimation pressure,"345.65 K, Ebulliometric method (Recirculating still)",79.99 ± 0.65 kPa
same,vapor or sublimation pressure,"349.45 K, Ebulliometric method (Recirculating still)",93.32 ± 0.7 kPa
COC(=O)OC [dimethyl carbonate],mass density,,1063.38 ± 0.16 kg/m3
same,vapor or sublimation pressure,336.68 K,40 ± 0.35 kPa
same,vapor or sublimation pressure,344.38 K,53.33 ± 0.39 kPa
same,vapor or sublimation pressure,350.66 K,66.66 ± 0.46 kPa
same,vapor or sublimation pressure,356.01 K,79.99 ± 0.54 kPa
same,vapor or sublimation pressure,360.68 K,93.32 ± 0.57 kPa
CO [methanol],mass density,,786.67 ± 0.31 kg/m3
same,vapor or sublimation pressure,"315.74 K, Ebulliometric method (Recirculating still)",40 ± 0.4 kPa
same,vapor or sublimation pressure,"315.87 K, Ebulliometric method (Recirculating still)",40 ± 0.4 kPa
same,vapor or sublimation pressure,"322.17 K, Ebulliometric method (Recirculating still)",53.33 ± 0.54 kPa
same,vapor or sublimation pressure,"322.25 K, Ebulliometric method (Recirculating still)",53.33 ± 0.54 kPa
same,vapor or sublimation pressure,"327.37 K, Ebulliometric method (Recirculating still)",66.66 ± 0.67 kPa
same,vapor or sublimation pressure,"327.45 K, Ebulliometric method (Recirculating still)",66.66 ± 0.67 kPa
same,vapor or sublimation pressure,"331.75 K, Ebulliometric method (Recirculating still)",79.99 ± 0.8 kPa
same,vapor or sublimation pressure,"331.84 K, Ebulliometric method (Recirculating still)",79.99 ± 0.8 kPa
same,vapor or sublimation pressure,"335.56 K, Ebulliometric method (Recirculating still)",93.32 ± 0.94 kPa
same,vapor or sublimation pressure,"335.66 K, Ebulliometric method (Recirculating still)",93.32 ± 0.94 kPa
